Results from PMC11672294, “The Antipsychotic Drug Aripiprazole Suppresses Colorectal Cancer by Targeting LAMP2a to Induce RNH1/miR‐99a/mTOR‐Mediated Autophagy and Apoptosis” (Advanced Science, 2024).
Structures can show the parent of a compound that is named as a salt.

What follows are molecules tested on HT29. Settings: 72 h, relative to DMSO, 10 µM, Relative cell viability (%).
Method in brief: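 HT29 viability used WST-1 reduction (2 h, 37 °C, A450) after 72 h of treatment; screening compounds were tested singly at 10 µM, with dimethyl sulfoxide as the comparison.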

SMILES	Relative cell viability (%) [%]
CCN(C)C(=O)Oc1cccc([C@H](C)N(C)C)c1 [Rivastigmine Tartrate]	125
CCN(C)C(=O)Oc1cccc([C@H](C)N(C)C)c1 [Rivastigmine]	88.03
N#CC[C@H](C1CCCC1)n1cc(-c2ncnc3[nH]ccc23)cn1 [Ruxolitinib (INCB018424)]	77.41
N#CC[C@H](C1CCCC1)n1cc(-c2ncnc3[nH]ccc23)cn1 [S-Ruxolitinib (INCB018424)]	98.54

Same assay, conditions: 72 h, relative to DMSO; 10 µM

SMILES	Relative cell viability (%) [%]
COc1cc(OC)c(/C=C/S(=O)(=O)Cc2ccc(OC)c(NCC(=O)O)c2)c(OC)c1 [Rigosertib (ON-01910)]	4.206
Cc1cc(/C=C/C#N)cc(C)c1Nc1ccnc(Nc2ccc(C#N)cc2)n1 [Rilpivirine]	58.55
CC(N)C12CC3CC(CC(C3)C1)C2 (stereo not shown) [Rimantadine]	127.5
Cc1c(C(=O)NN2CCCCC2)nn(-c2ccc(Cl)cc2Cl)c1-c1ccc(Cl)cc1 [Rimonabant]	79.61
C[C@H]1CNCCCN1S(=O)(=O)c1cccc2cncc(F)c12 [Ripasudil (K-115)]	118.8
O=C(NC[C@H]1CN(c2ccc(N3CCOCC3=O)cc2)C(=O)O1)c1ccc(Cl)s1 [Rivaroxaban]	107.3
O=C(CCCCCCNC(=O)c1cnc(N(c2ccccc2)c2ccccc2)nc1)NO [Rocilinostat (ACY-1215)]	32.91
CS(=O)(=O)c1ccc(C2=C(c3ccccc3)C(=O)OC2)cc1 [Rofecoxib]	116
O=C(Nc1c(Cl)cncc1Cl)c1ccc(OC(F)F)c(OCC2CC2)c1 [Roflumilast]	121.4
CN(CCOc1ccc(CC2SC(=O)NC2=O)cc1)c1ccccn1 (stereo not shown) [Rosiglitazone HCl]	114.3
CC(C)c1nc(N(C)S(C)(=O)=O)nc(-c2ccc(F)cc2)c1/C=C/[C@@H](O)C[C@@H](O)CC(=O)O [Rosuvastatin Calcium]	120.2
CCCN(CCc1cccs1)[C@H]1CCc2c(O)cccc2C1 [Rotigotine]	62.12
CC(=O)OCC(=O)NCCCOc1cccc(CN2CCCCC2)c1 [Roxatidine Acetate HCl]	111
NC(=O)c1cn(Cc2c(F)cccc2F)nn1 [Rufinamide]	91.43
Cc1cncc(CN2CCC(=C3c4ccc(Cl)cc4CCc4cccnc43)CC2)c1 [Rupatadine Fumarate]	83.98
C[C@@H]1O[C@@H](OC[C@H]2O[C@@H](Oc3c(-c4ccc(O)c(O)c4)oc4cc(O)cc(O)c4c3=O)[C@H](O)[C@@H](O)[C@@H]2O)[C@H](O)[C@H](O)[C@H]1O [Rutin]	112
COc1ccc([C@H]2CNC(=O)C2)cc1OC1CCCC1 [S- (+)-Rolipram]	107.3
CC(C)=CCC/C(C)=C/CC/C(C)=C/CSc1ccccc1C(=O)O [Salirasib]	84.19
O=C(O)c1cn(-c2ccc(F)cc2)c2cc(N3CCNCC3)c(F)cc2c1=O [Sarafloxacin HCl]	85.35
N#C[C@@H]1C[C@@H]2C[C@@H]2N1C(=O)[C@@H](N)C12CC3CC(CC(O)(C3)C1)C2 [Saxagliptin hydrate]	117.5
NCCc1c[nH]c2ccc(O)cc12 [Serotonin HCl]	86.67
CCCc1nn(C)c2c(=O)[nH]c(-c3cc(S(=O)(=O)N4CCN(C)CC4)ccc3OCC)nc12 [Sildenafil Mesylate]	91.88
COc1cc([C@H]2Oc3cc([C@H]4Oc5cc(O)cc(O)c5C(=O)[C@@H]4O)ccc3O[C@@H]2CO)ccc1O [Silibinin]	119.6
N[C@@H]1CN(c2c(F)cc3c(=O)c(C(=O)O)cn([C@@H]4C[C@@H]4F)c3c2Cl)CC12CC2 [Sitafloxacin Hydrate]	126.1
